Where “and” joins values, the source holds several entries; their conditions need not be identical. Identical values can stand only once. Toxic doses and inconclusive results are not listed.
Test system: CD2F1 mice, L1210 leukemia ip, survival T/C
Assay: NCI In Vivo Anticancer Drug Screen. Data for tumor model L1210 Leukemia (intraperitoneal) in CD2F1 (CDF1) mice
Details: endpoint: mean survival time, higher = longer survival
Outline: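 Antitumor effect is scored in animals hosting a serially transplanted tumor. Values compare compound-dosed animals against vehicle-only controls as a simple quotient.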

[1] = dose: 100.0 mg/kg/injection, schedule: Q01DX009 (ip), vehicle: saline with Tween-80
[2] = dose: 100.0 mg/kg/injection, schedule: Q04DX003 (ip), vehicle: saline
[3] = dose: 200.0 mg/kg/injection, schedule: Q01DX009 (ip), vehicle: saline with Tween-80
[4] = dose: 200.0 mg/kg/injection, schedule: Q04DX003 (ip), vehicle: saline
[5] = dose: 400.0 mg/kg/injection, schedule: Q01DX009 (ip), vehicle: saline with Tween-80
[6] = dose: 400.0 mg/kg/injection, schedule: Q04DX003 (ip), vehicle: saline

NC(=S)c1csc(CCNC(=O)c2ccccc2)n1
T/C (dose: 100.0 mg/kg/injection, schedule: Q01DX001 (ip), vehicle: saline with Tween-80): 100 % of control
T/C [1]: 98 % of control
T/C [2]: 96 % of control
T/C (dose: 200.0 mg/kg/injection, schedule: Q01DX001 (ip), vehicle: saline with Tween-80): 97 % of control
T/C [3]: 98 % of control
T/C [4]: 89 % of control
T/C (dose: 400.0 mg/kg/injection, schedule: Q01DX001 (ip), vehicle: saline with Tween-80): 97 % of control
T/C [5]: 100 % of control
T/C [6]: 93 % of control

N#Cc1[nH]nc2ncnc(NC(=O)C(F)(F)F)c12
T/C (dose: 6.25 mg/kg/injection, schedule: Q01DX005 (ip), vehicle: water): 111 % of control
T/C (dose: 12.5 mg/kg/injection, schedule: Q01DX005 (ip), vehicle: water): 96 % of control
T/C (dose: 25.0 mg/kg/injection, schedule: Q01DX005 (ip), vehicle: water): 107 % of control
T/C (dose: 50.0 mg/kg/injection, schedule: Q01DX005 (ip), vehicle: water): 96 % of control

CC(=O)Nc1ccc(S(=O)(=O)OCCC#N)cc1
T/C [1]: 98 % of control
T/C [3]: 91 % of control

NC(=O)C1=C(N)CCC1
T/C [1]: 104 % of control
T/C [3]: 104 % of control
T/C [5]: 106 % of control

CC(C)(Cl)[N+](=O)[O-]
T/C [2]: 98 % of control
T/C [4]: 104 % of control
T/C [6]: 96 % of control

Nc1ccc2[nH]c(-c3ccc(S(=O)(=O)F)cc3)cc(=O)c2c1
T/C [1]: 102 % of control
T/C [3]: 106 % of control
T/C [5]: 113 % of control

CC1CCc2c(nc(C#N)c(=N)n2O)C1 (centres undefined)
T/C (dose: 100.0 mg/kg/injection, schedule: Q04DX003 (ip), vehicle: Klucel (hydroxypropylcellulose) (HPC)): 102 % of control
T/C (dose: 200.0 mg/kg/injection, schedule: Q04DX003 (ip), vehicle: Klucel (hydroxypropylcellulose) (HPC)): 106 % of control
T/C (dose: 400.0 mg/kg/injection, schedule: Q04DX003 (ip), vehicle: Klucel (hydroxypropylcellulose) (HPC)): 98 % of control

C1CCC2[N-]CC3CCCCC3[N-]CC3CCCCC3[N-]CC3CCCCC3[N-]CC2C1.[Cu] (centres undefined)
T/C (dose: 0.39 mg/kg/injection, schedule: Q01DX009 (ip), vehicle: saline): 118 % of control
T/C (dose: 0.78 mg/kg/injection, schedule: Q01DX009 (ip), vehicle: saline): 116 % of control
T/C (dose: 1.56 mg/kg/injection, schedule: Q01DX009 (ip), vehicle: saline): 104 % of control
T/C (dose: 3.12 mg/kg/injection, schedule: Q01DX009 (ip), vehicle: saline): 118 % of control
T/C (dose: 6.25 mg/kg/injection, schedule: Q01DX009 (ip), vehicle: saline): 119 % of control

Nc1nc(N)c2nc(COc3ccc(C(=O)NC(CCC(=O)O)C(=O)O)cc3)cnc2n1 (centres undefined)
T/C (dose: 0.38 mg/kg/injection, schedule: Q01DX009 (ip), vehicle: saline with Tween-80): 110 % of control
T/C (dose: 0.75 mg/kg/injection, schedule: Q01DX009 (ip), vehicle: saline with Tween-80): 109 % of control
T/C (dose: 1.5 mg/kg/injection, schedule: Q01DX009 (ip), vehicle: sodium bicarbonate): 168 % of control
T/C (dose: 3.0 mg/kg/injection, schedule: Q01DX009 (ip), vehicle: saline with Tween-80): 95 % of control
T/C (dose: 3.0 mg/kg/injection, schedule: Q01DX009 (ip), vehicle: sodium bicarbonate): 179 % of control
T/C (dose: 6.0 mg/kg/injection, schedule: Q01DX009 (ip), vehicle: sodium bicarbonate): 157 % of control

NCCCOS(=O)(=O)O
T/C [1]: 96 % of control
T/C [2]: 98 % of control
T/C [3]: 97 % of control
T/C [4]: 101 % of control
T/C [5]: 100 % of control
T/C [6]: 95 % of control

NC1=NC(=O)/C(=C/c2ccccc2)S1
T/C (dose: 100.0 mg/kg/injection, schedule: Q04DX003 (ip), vehicle: saline with Tween-80): 93 % of control
T/C (dose: 200.0 mg/kg/injection, schedule: Q04DX003 (ip), vehicle: saline with Tween-80): 97 % of control
T/C (dose: 400.0 mg/kg/injection, schedule: Q04DX003 (ip), vehicle: saline with Tween-80): 97 % of control

CCOC(=O)CC(=O)C(F)(F)F
T/C (dose: 75.0 mg/kg/injection, schedule: Q01DX001 (ip), vehicle: saline): 95 % of control
T/C (dose: 150.0 mg/kg/injection, schedule: Q01DX001 (ip), vehicle: saline): 97 % of control
T/C (dose: 300.0 mg/kg/injection, schedule: Q01DX001 (ip), vehicle: saline): 101 % of control

C[CH2][Sn]1([CH2]C)[O]C2C(CO)OC(n3cnc4c(N)ncnc43)C2[O]1 (centres undefined)
T/C (dose: 1.56 mg/kg/injection, schedule: Q01DX005 (ip), vehicle: other): 100 % of control
T/C (dose: 3.13 mg/kg/injection, schedule: Q01DX005 (ip), vehicle: other): 102 % of control
T/C (dose: 6.25 mg/kg/injection, schedule: Q01DX005 (ip), vehicle: other): 104 % of control
T/C (dose: 12.5 mg/kg/injection, schedule: Q01DX005 (ip), vehicle: other): 105 % of control and 106 % of control

— PubChem BioAssay AID256 (DTP/NCI, 2004)
